# Experimental data: patent US20120015344A1, “Methods, compositions, and apparatus for the detection of viral strains” (priority 2010, published 2012)
# Several values for one entry are separate records, joined by “and”; a condition that tells them apart may be missing. Equal values may be shown once. Entries after “also recorded” stand apart in the source; their conditions may differ. Read-outs that look alike come from different tables or passages of the source. Marks after values point to notes of the source that are not given here.
# Columns and labels:
# [1] = biological target: T1, H1 hemagglutinin (HA) protein, A/South Carolina/1/18 (H1N1) (Influenza A virus, UniProt Q9WFX3); type: binding, Influenza A virus H1N1 (A/South Carolina/1/18)
# T1 sequence (Q9WFX3 18-566 limits assumed): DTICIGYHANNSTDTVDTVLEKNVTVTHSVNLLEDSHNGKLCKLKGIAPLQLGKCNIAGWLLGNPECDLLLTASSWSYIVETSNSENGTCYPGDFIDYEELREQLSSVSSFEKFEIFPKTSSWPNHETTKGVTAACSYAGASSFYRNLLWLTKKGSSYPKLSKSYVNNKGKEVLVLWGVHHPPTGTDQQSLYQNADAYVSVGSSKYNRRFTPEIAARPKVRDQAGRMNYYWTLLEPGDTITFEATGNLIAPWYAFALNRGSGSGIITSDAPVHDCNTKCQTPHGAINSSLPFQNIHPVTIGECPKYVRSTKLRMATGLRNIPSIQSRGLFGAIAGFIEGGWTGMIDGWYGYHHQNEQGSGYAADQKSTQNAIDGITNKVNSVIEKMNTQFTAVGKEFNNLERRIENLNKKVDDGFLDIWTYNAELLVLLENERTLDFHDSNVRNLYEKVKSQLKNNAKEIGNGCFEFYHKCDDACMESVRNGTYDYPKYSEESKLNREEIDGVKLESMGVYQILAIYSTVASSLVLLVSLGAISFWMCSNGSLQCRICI
# [2] = test system: H5 Hemagglutinin (HA) Protein from Influenza Virus, A/Vietnam/1203/04 (H5N1); type: binding, Influenza A virus H5N1 (A/Vietnam/1203/04)
# [3] = biological target: T1, H1 hemagglutinin (HA) protein, A/South Carolina/1/18 (H1N1); type: binding, Influenza A virus H1N1 (A/South Carolina/1/18); remark: listed apart in the source
# H5N1 = details: cited from earlier work
# [4] = test system: H5 Hemagglutinin (HA) Protein from Influenza Virus, A/Vietnam/1203/04 (H5N1); type: binding, Influenza A virus H5N1 (A/Vietnam/1203/04); remark: listed apart in the source
substance,measurement,setting,value
Neu5Acα2-3Galβ1-4[Fucα1-3]GlcNAcβ-SpNH-LC-LC-Biotin [3′SLe^x],Mean ΔQ ± S.D. (n = 3),[1],0.2259 ± 0.0115^f mC and 0.2974 ± 0.0001^f mC
same,"binding between H5 and glycan (avidity, from ΔQ)",[2],high avidity of binding
same,Mean ΔQ ± S.D. (n = 3),[3],0.08906 ± 0.0045^b mC and 0.1186 ± 0.0180^b mC
same,Predicted to Bind H5N1,H5N1,Yes
Neu5Acα2-8Neu5Acα2-8Neu5Acα2-3Galβ1-4Glcβ-SpNH-LC-LC-Biotin [GT3],Mean ΔQ ± S.D. (n = 3),[2],0.2881 ± 0.0172^f mC
same,"binding between H5 and glycan (avidity, from ΔQ)",[2],statistically lower binding
same,Predicted to Bind H5N1,H5N1,No
Neu5Acα2-6Galβ1-4GlcNAcβ-SpNH-LC-LC-Biotin [6′SLN],Predicted to Bind H5N1,H5N1,No
same,Mean ΔQ ± S.D. (n = 3),[4],0.1388 ± 0.0056^h mC
same,"binding between H5 and glycan (avidity, from ΔQ)",[4],statistically lower binding
Neu5Acα2-6[Galβ1-4GlcNAcβ1-3]2β-SpNH-LC-LC-Biotin [6′S-Di-LN],Predicted to Bind H5N1,H5N1,No
Neu5Acα2-3[Galβ1-4GlcNAcβ1-3]2β-SpNH-LC-LC-Biotin [3′S-Di-LN],Predicted to Bind H5N1,H5N1,Yes
Neu5Acα2-3Galβ1-4GlcNAcβ-SpNH-LC-LC-Biotin [3′SLN],Predicted to Bind H5N1,H5N1,Yes
same,"binding between H5 and glycan (avidity, from ΔQ)",[4],statistically higher avidity; also recorded: high avidity of binding
Neu5Acα2-3[GalNAcβ1-4]Galβ1-4GlcNAcβ-SpNH-LC-LC-Biotin [CT/Sda],Predicted to Bind H5N1,H5N1,No
